From patent US6806267B1, “Apoptosis-inducing compounds” (priority 1998, dated 2004)
Where two headings read alike, the source gives them in different places.

Columns and labels:
K562 cells [1] = assay: Apoptosis in K562 cells, cytospin and staining; assay type: cell-based, human; details: K562, 16 hours
Jurkat cells [2] = assay type: cell-based, human; details: 1 hour, then etoposide 16 hours
[3] = test system: CEM (T lymphoblastoid) cells; assay: Apoptosis in CEM cells (neo and Bcl-2 overexpressing); assay type: cell-based, human
[4] = test system: PARP (poly ADP-ribose polymerase); assay: Western blot of PARP cleavage in CML cells; assay type: cell-based, human
Experimental: CML cells were seeded at 2×10^6 cells in 5 mls of growth medium, and treated with 10 μM PBOX-6 for 16 and 24 hr. Hela cells were seeded at 1×10^6 cells per 25 cm^2 flask. Following a 24 hour incubation, the cells were treated with PBOX-3 for a further 48 hours and the cells were scraped up. Cells were then centrifuged at 500 g for 5 min, the supernatant was removed and the pellet was resuspended in 200 μl of PARP sample buffer (62.5 mM Tris/HCl pH 6.8, 6 M urea, 10% (w/v) glycerol, 2% (w/v) SDS, 0.00125% bromophenol blue, and 5% (v/v) β-mercaptoethanol was added immediately before use). Samples were sonicated for 15 sec before aliquoting into 15 μl volumes. Samples were stored at −20° C. until use. 10-15 μl of thawed samples were resolved directly on a 10% polyacrylamide gel and transferred onto PVDF membrane at room temperature using wet transfer apparatus. After transfer, the membrane was blocked overnight in PBS containing 5% dry milk (Marvel). After blocking, the membrane was washed in PBST for 2×2 minutes before incubating for 1 hr with anti-PARP antibody (2 μg/ml in PBST containing 1% dry milk). Following incubation the membrane was washed for 20 minutes in PBST and incubated with goat anti mouse HRP conjugated secondary antibody (1:1000 dilution in PBST containing 1% dry milk). After washing in PBST for 30 minutes, ECL was used to visualise the proteins. […]

caspase 3-like proteases = assay type: cell-based, human; details: HL-60 cells
Experimental: (§1) Cells (5×10^6 cells) were harvested by centrifugation, washing in ice-cold phosphate-buffered saline and the pellets resuspended in 200 μl of harvesting buffer (20 mM Hepes, pH 7.5, 10% (w/v) sucrose, 0.1% (w/v) CHAPS, 2 mM dithiotreitol, 0.1% (v/v) Nonidet NP40, 1 mM sodium EDTA and 1 mM phenylmethylsulfonyl fluoride) supplemented with protease inhibitors (1 μg/ml pepstatin A and 1 μg/ml leupeptin). Following incubation on ice for 10 min, samples were passed up and down 10 times through a 21 gauge needle. Following a further incubation on ice for 10 min the homogenates were centrifuged at 20,000 g for 20 min and the resulting supernatants used to measure caspase 3 activity. This enzyme activity was determined by a fluorometric assay using the substrate Ac-DEVD-AMC, which is cleaved by caspase 3 to release the fluorescent leaving group, amino-4-methyl coumarin (AMC). Enzyme extracts (50 μg) were incubated with 100 mM Hepes, pH 7.5, containing 10% (w/v) sucrose, 0.1% (w/v) CHAPS, 10 mM dithiotreitol and 20 μM substrate in a total reaction volume of 3 ml. Following incubation for 60 min at 25° C., fluorescence was monitored continuously using a spectrofluorimeter (excitation wavelength 380 nm, emission wavelength 460 nm). The amount of AMC released was determined by comparison with a standard curve generated with known amounts of AMC.

caspase 3 = assay type: cell-based, human
Experimental: as §1

JNK1 and JNK2 = assay: Western blot of JNK activation in Lama 84 and KYO.1 cells; assay type: cell-based, human; details: Lama 84 and KYO.1, 45 minutes
p38 = assay: Western blot of p38 activation in K562 cells; assay type: cell-based, human; details: K562, 5 min up to 8 hours
BCR-abl = assay: Western blot analysis of BCR-abl in CML cells; assay type: cell-based, human
Jurkat cells [5] = assay type: cell-based, human; details: 0.5 μM 1 hour, then etoposide 2.5 μM 1 hour
Experimental: (§2) This assay was set up as described by Kohn et al., 1976 with the following modifications.
(§3) Cells were seeded at 0.4×10^6 cells/ml and were in the logarithmic phase of growth. […] Cells harvested for the experiments were at a density of 2×10^6 cells/ml.
(§4) Cells (1×10^6) were labelled with [^3H] thymidine (sp. act. 2 Ci/mmol) (0.2 μCi/ml) and 1 μM unlabelled thymidine, and incubated for 20 hr. Cells were harvested by centrifugation at 500×g for 5 mins following by two washes in PBS and the pellet was resuspended in 3 ml of PBS. Cells were aliquoted into 1 ml amounts in a 24 well plate and allowed to recover for 1 hr at 37° C. before treating with indicated compounds. Following treatment, cells were washed once in PBS and resuspended in 250 μl of PBS. An aliquot of cells (200 μl) was loaded directly onto a 25 mm diameter glass fiber filter, pore size of 0.2 μM. The cells were lysed on the filter by the addition of 5 ml lysis buffer (2% (w/v) SDS, 10 mM disodium EDTA (pH 10) supplemented with 0.5 mg/ml proteinase K. The lysis buffer was allowed to flow slowly through the filter without suction. Filters were washed using 3 ml wash solution (0.02M Na3EDTA pH 10) allowing it to flow without suction. Filters were eluted in the dark with an alkaline solution (0.04M EDTA plus tetrapropylammonium hydroxide (10% in H2O ) added in the amount required to give pH 12.1). The elution apparatus consisted of a filter funnel with output tubing passing through a peristaltic pump to a collector. Elution took place overnight at a flow rate of 0.05 ml/min. Following elution, filters were treated with 0.4 ml HCl (1N) for 1 hr at 70° C. followed by 2.5 ml NaOH (0.4N) for 30 min at room temp. Scintillation fluid (10 ml) was added and radioactivity remaining on the filters was determined by scintillation counting.

K562 cells [6] = assay type: cell-based, human; details: 3 hours
Experimental: as §2, §3, §4

HL-60 cells [7] = assay: Agarose gel electrophoresis of DNA ladders, HL-60 cells; assay type: cell-based, human; details: 24 hours
[8] = test system: CML cell lines K562, KYO.1 and Lama 84; assay: Agarose gel electrophoresis of DNA ladders, CML cells; assay type: cell-based, human; details: all three CML cell lines
HL-60 cells [9] = assay: Apoptosis in HL-60 cells, cytospin and Rapi-Diff staining
[10] = HL-60 cells and the 3 CML cell lines

SMILES: CN(C)C(=O)OC1=C(c2cccc3ccccc23)Oc2ccccc2-n2cccc21 [PBOX-6, 7-((Dimethylcarbamoyl)oxy)-6-(1-naphthyl)pyrrolo[2,1-d][1,5]benzoxazepine]
- cells that had undergone apoptosis (K562 cells [1]): 40-50%
- effect of pretreatment on etoposide induced apoptosis (Jurkat cells [2]): does not protect against etoposide induced apoptosis
- induction of apoptosis in CEM cells overexpressing Bcl-2 ([3]; Bcl-2 overexpressing): dose-dependent induction of apoptosis
- induction of apoptosis in normal CEM cells ([3]; normal (neo) CEM): dose-dependent induction of apoptosis
- PARP cleavage ([4]; K562 24 hours, Lama 84 16 hours): PARP cleavage occurs
- PARP cleavage ([4]; KYO.1 cells, 24 hours): result in PARP cleavage
- time at which caspase 3-like protease activity became evident (caspase 3-like proteases): 6 h
- activation of caspase 3-like proteases (caspase 3-like proteases; DEVD-AMC substrate): dose-dependent activation of caspase 3-like proteases
- caspase 3 activation (caspase 3; K562 and Lama 84, 16 hours): activated
- caspase 3 activation (caspase 3; KYO.1 cells): not detected
- activation of JNK1 and JNK2 (JNK1 and JNK2): found to be activated
- activation of p38 (p38): failed to activate p38
- BCR-abl expression (BCR-abl; K562 and KYO.1 cells): downregulation of BCR-abl was detected, but not until 24 hours
- downregulation of BCR-abl (BCR-abl; Lama 84 cells, up to 72 hours): not detected
- effect of pretreatment on etoposide induced DNA strand breaks (Jurkat cells [5]): did not prevent the induction of DNA strand breaks by etoposide
- DNA strand breaks (K562 cells [6]): did not show any significant increase in DNA strand breaks
- DNA fragmentation (ladder pattern) (HL-60 cells [7]): resulted in DNA fragmentation
- internucleosomal DNA fragmentation (DNA ladders) [8]: DNA laddering pattern was visible
- apoptosis below a final concentration of 5 μM (HL-60 cells [9]; HL-60 cells): negligible
- time at which morphological signs of apoptosis became apparent (HL-60 cells [9]; HL-60 cells): 6 hours
- concentration at which apoptosis was first observed (HL-60 cells [9]; [10]): 5 µM
- time after which apoptosis was first observed (HL-60 cells [9]; [10]): 4 h
- degree of necrosis (HL-60 cells [9]; HL-60 cells, 10 μM, 16 hours): negligible
- cytotoxicity at 10 µM (HL-60 cells [9]; Homo sapiens, HL-60, 16 h, read-out: % Apoptosis): 38.6 ± 4.6%
